# Data: patent US20260285850A1, “SUBSTITUTED OXAZOLIDINONES AND IMIDAZOLINONES AS HERBICIDES” (FMC CORPORATION, priority 2023, published 2026)
# Assays:
# Assay type in all cases: in vivo
# [1] = tested on: palmer (palmer amaranth, palmer pigweed, Amaranthus palmeri); test: Test A postemergence application, visual injury rating 0-100
# Procedure, shortened: (§1)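 Plants were grown in a loam soil-sand blend and treated with test chemical in a non-phytotoxic solvent mixture containing surfactant, either sprayed on soil preemergence or applied postemergence to 2-10 cm plants. After 10 days in a greenhouse, injury was scored visually against untreated controls, 0 meaning no effect and 100 complete control.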
# kochia (Bassia scoparia) [2] = test: as above
# Procedure, shortened: as §1
# [3] = tested on: galium (catchweed bedstraw, Galium aparine); test: as above; settings: Postemergence, 16 g ai/ha, greenhouse 10 days; 0 no effect, 100 complete control
# Procedure, shortened: as §1
# [4] = tested on: ryegrass, Italian (italian ryegrass, Lolium multiflorum); test: as above
# Procedure, shortened: as §1
# [5] = tested on: ragweed (common ragweed, Ambrosia artemisiifolia); test: as above
# Procedure, shortened: as §1
# [6] = tested on: oat, wild (wild oat, Avena fatua); test: as above
# Procedure, shortened: as §1
# [7] = tested on: horseweed (Erigeron canadensis); test: as above
# Procedure, shortened: as §1
# soybean (Glycine max) [8] = test: as above
# Procedure, shortened: as §1
# [9] = tested on: blackgrass (Alopecurus myosuroides); test: as above
# Procedure, shortened: as §1
# [10] = tested on: barnyardgrass (Echinochloa crus-galli); test: as above
# Procedure, shortened: as §1
# corn (Zea mays) [11] = test: as above
# Procedure, shortened: as §1
# [12] = tested on: green foxtail (Setaria viridis); test: as above
# Procedure, shortened: as §1
# [13] = tested on: wheat (Triticum aestivum); test: as above
# Procedure, shortened: as §1
# rice (Oryza sativa) = test: Test B flooded paddy test, visual plant response rating 0-100; settings: 250 g ai/ha, Flood, applied to paddy water, evaluated after 13 days
# Procedure, shortened: (§2)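 Visual scores versus untreated controls were recorded 13 days after treatment of greenhouse-held plants. At the 2-leaf stage, pots were flooded 3 cm above the soil surface and compounds added straight to the water.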
# [14] = tested on: sedge, umbrella (small-flower umbrella sedge, Cyperus difformis); test: as above; settings: 250 g ai/ha, Flood, applied to paddy water, evaluated after 13 days
# Procedure, shortened: as §2
# [15] = tested on: barnyardgrass (Echinochloa crusgalli); test: as above; settings: 250 g ai/ha, Flood, applied to paddy water, evaluated after 13 days
# Procedure, shortened: as §2
# [16] = tested on: ducksalad (Heteranthera limosa); test: as above; settings: 250 g ai/ha, Flood, applied to paddy water, evaluated after 13 days
# Procedure, shortened: as §2
# [17] = tested on: palmer (palmer amaranth, palmer pigweed, Amaranthus palmeri); test: Test A preemergence soil spray, visual injury rating 0-100; settings: 10 days
# Procedure, shortened: as §1
# kochia (Bassia scoparia) [18] = test: as above; settings: 10 days
# Procedure, shortened: as §1
# [19] = tested on: ryegrass, Italian (italian ryegrass, Lolium multiflorum); test: as above; settings: 10 days
# Procedure, shortened: as §1
# [20] = tested on: ragweed (common ragweed, Ambrosia artemisiifolia); test: as above; settings: 10 days
# Procedure, shortened: as §1
# [21] = tested on: oat, wild (wild oat, Avena fatua); test: as above; settings: 10 days
# Procedure, shortened: as §1
# soybean (Glycine max) [22] = test: as above; settings: 10 days
# Procedure, shortened: as §1
# [23] = tested on: blackgrass (Alopecurus myosuroides); test: as above; settings: 10 days
# Procedure, shortened: as §1
# [24] = tested on: barnyardgrass (Echinochloa crus-galli); test: as above; settings: 10 days
# Procedure, shortened: as §1
# corn (Zea mays) [25] = test: as above; settings: 10 days
# Procedure, shortened: as §1
# [26] = tested on: green foxtail (Setaria viridis); test: as above; settings: 10 days
# Procedure, shortened: as §1
# [27] = tested on: wheat (Triticum aestivum); test: as above; settings: 10 days
# Procedure, shortened: as §1
# [28] = 62 g ai/ha, postemergence, 10 days, 0 = no effect, 100 = complete control
# [29] = Postemergence, 16 g ai/ha, greenhouse 10 days, 0 no effect, 100 complete control
# [30] = 62 g ai/ha, 0 = no effect, 100 = complete control
structure (smiles),measurement,setting,value
COC(=O)C1=CCC(NC(=O)C2(C)CN(c3cc(Cl)cc(Cl)c3)C(=O)O2)C1 (stereo not drawn) [Compound 149],"Pigweed, Palmer plant response rating (0-100)",[1]; [28],90
same,"Pigweed, Palmer plant response rating (0 to 100 scale)",[1]; [29],90
same,Kochia plant response rating (0-100),kochia (Bassia scoparia) [2]; [28],90
same,Kochia plant response rating (0 to 100 scale),kochia (Bassia scoparia) [2]; [29],80
same,Galium plant response rating (0 to 100 scale),[3],60
same,"Ryegrass, Italian plant response rating (0-100)",[4]; [28],80
same,"Ryegrass, Italian plant response rating (0 to 100 scale)",[4]; [29],80
same,Ragweed plant response rating (0-100),[5]; [28],50
same,Ragweed plant response rating (0 to 100 scale),[5]; [29],20
same,"Oat, Wild plant response rating (0-100)",[6]; [28],90
same,"Oat, Wild plant response rating (0 to 100 scale)",[6]; [29],30
same,Horseweed plant response rating (0-100),[7]; [28],70
same,Horseweed plant response rating (0 to 100 scale),[7]; [29],50
same,Soybean plant response rating (0-100),soybean (Glycine max) [8]; [28],90
same,Soybean plant response rating (0 to 100 scale),soybean (Glycine max) [8]; [29],60
same,Blackgrass plant response rating (0-100),[9]; [28],90
same,Blackgrass plant response rating (0 to 100 scale),[9]; [29],90
same,Barnyardgrass plant response rating (0-100),[10]; [28],100
same,Barnyardgrass plant response rating (0 to 100 scale),[10]; [29],100
same,Corn plant response rating (0-100),corn (Zea mays) [11]; [28],100
same,Corn plant response rating (0 to 100 scale),corn (Zea mays) [11]; [29],100
same,"Foxtail, Green plant response rating (0-100)",[12]; [28],90
same,"Foxtail, Green plant response rating (0 to 100 scale)",[12]; [29],90
same,Wheat plant response rating (0-100),[13]; [28],90
same,Wheat plant response rating (0 to 100 scale),[13]; [29],80
same,"Plant response rating, Rice (0 to 100 scale, 0 is no effect and 100 is complete control)",rice (Oryza sativa),90
same,"Plant response rating, Sedge, Umbrella (0 to 100 scale, 0 is no effect and 100 is complete control)",[14],95
same,"Plant response rating, Barnyardgrass (0 to 100 scale, 0 is no effect and 100 is complete control)",[15],95
same,"Plant response rating, Ducksalad (0 to 100 scale, 0 is no effect and 100 is complete control)",[16],95
same,"Pigweed, Palmer plant response rating","[17]; 16 g ai/ha, 0 to 100 scale",90
same,"Pigweed, Palmer plant response rating (0-100)",[17]; [30],100
same,Kochia plant response rating,"kochia (Bassia scoparia) [18]; 16 g ai/ha, 0 to 100 scale",0
same,Kochia plant response rating (0-100),kochia (Bassia scoparia) [18]; [30],50
same,"Ryegrass, Italian plant response rating","[19]; 16 g ai/ha, 0 to 100 scale",20
same,"Ryegrass, Italian plant response rating (0-100)",[19]; [30],80
same,Ragweed plant response rating,"[20]; 16 g ai/ha, 0 to 100 scale",0
same,Ragweed plant response rating (0-100),[20]; [30],30
same,"Oat, Wild plant response rating","[21]; 16 g ai/ha, 0 to 100 scale",0
same,"Oat, Wild plant response rating (0-100)",[21]; [30],20
same,Soybean plant response rating,"soybean (Glycine max) [22]; 16 g ai/ha, 0 to 100 scale",0
same,Soybean plant response rating (0-100),soybean (Glycine max) [22]; [30],0
same,Blackgrass plant response rating,"[23]; 16 g ai/ha, 0 to 100 scale",0
same,Blackgrass plant response rating (0-100),[23]; [30],0
same,Barnyardgrass plant response rating,"[24]; 16 g ai/ha, 0 to 100 scale",60
same,Barnyardgrass plant response rating (0-100),[24]; [30],90
same,Corn plant response rating,"corn (Zea mays) [25]; 16 g ai/ha, 0 to 100 scale",0
same,Corn plant response rating (0-100),corn (Zea mays) [25]; [30],30
same,"Foxtail, Green plant response rating","[26]; 16 g ai/ha, 0 to 100 scale",30
same,"Foxtail, Green plant response rating (0-100)",[26]; [30],90
same,Wheat plant response rating,"[27]; 16 g ai/ha, 0 to 100 scale",20
same,Wheat plant response rating (0-100),[27]; [30],70
